From ChEMBL document CHEMBL3763148, “Synthesis, structure elucidation, DNA-PK and PI3K and anti-cancer activity of 8- and 6-aryl-substituted-1-3-benzoxazines” (Eur J Med Chem, 2016)

Key:
[1] = Cytotoxicity against human PC3 cells assessed as cell growth inhibition at 10 uM after 48 hrs by SRB assay relative to control; type: functional; conditions: PC-3, 48 h, read-out: GI
SK-MEL-5 = assay: Cytotoxicity against human SK-MEL-5 cells assessed as cell growth inhibition at 10 uM after 48 hrs by SRB assay relative to control; type: functional; conditions: SK-MEL-5, 48 h, read-out: GI
[2] = Cytotoxicity against human HL-60(TB) cells assessed as cell growth inhibition at 10 uM after 48 hrs by SRB assay relative to control; type: functional; conditions: HL-60, 48 h, read-out: GI
K562 = assay: Cytotoxicity against human K562 cells assessed as cell growth inhibition at 10 uM after 48 hrs by SRB assay relative to control; type: functional; conditions: K562, 48 h, read-out: GI
[3] = Cytotoxicity against human SF295 cells assessed as cell growth inhibition at 10 uM after 48 hrs by SRB assay relative to control; type: functional; conditions: SF-295, 48 h, read-out: GI
EKVX = assay: Cytotoxicity against human EKVX cells assessed as cell growth inhibition at 10 uM after 48 hrs by SRB assay relative to control; type: functional; conditions: read-out: GI
[4] = Cytotoxicity against human SKOV3 cells assessed as cell growth inhibition at 10 uM after 48 hrs by SRB assay relative to control; type: functional; conditions: SK-OV-3, 48 h, read-out: GI
U-251 = assay: Cytotoxicity against human U251 cells assessed as cell growth inhibition at 10 uM after 48 hrs by SRB assay relative to control; type: functional; conditions: U-251, 48 h, read-out: GI
[5] = Cytotoxicity against human HOP62 cells assessed as cell growth inhibition at 10 uM after 48 hrs by SRB assay relative to control; type: functional; conditions: HOP-62, 48 h, read-out: GI
[6] = Cytotoxicity against human HCT15 cells assessed as cell growth inhibition at 10 uM after 48 hrs by SRB assay relative to control; type: functional; conditions: HCT-15, 48 h, read-out: GI
[7] = Cytotoxicity against human HOP92 cells assessed as cell growth inhibition at 10 uM after 48 hrs by SRB assay relative to control; type: functional; conditions: HOP-92, 48 h, read-out: GI
[8] = Cytotoxicity against human UACC257 cells assessed as cell growth inhibition at 10 uM after 48 hrs by SRB assay relative to control; type: functional; conditions: UACC-257, 48 h, read-out: GI
[9] = Cytotoxicity against human IGROV1 cells assessed as cell growth inhibition at 10 uM after 48 hrs by SRB assay relative to control; type: functional; conditions: IGROV-1, 48 h, read-out: GI
[10] = Cytotoxicity against human SNB75 cells assessed as cell growth inhibition at 10 uM after 48 hrs by SRB assay relative to control; type: functional; conditions: SNB-75, 48 h, read-out: GI
SK-MEL-28 = assay: Cytotoxicity against human SK-MEL-28 cells assessed as cell growth inhibition at 10 uM after 48 hrs by SRB assay relative to control; type: functional; conditions: SK-MEL-28, 48 h, read-out: GI
[11] = Cytotoxicity against human OVCAR4 cells assessed as cell growth inhibition at 10 uM after 48 hrs by SRB assay relative to control; type: functional; conditions: OVCAR-4, 48 h, read-out: GI
SR = assay: Cytotoxicity against human SR cells assessed as cell growth inhibition at 10 uM after 48 hrs by SRB assay relative to control; type: functional; conditions: read-out: GI
[12] = Cytotoxicity against human SW620 cells assessed as cell growth inhibition at 10 uM after 48 hrs by SRB assay relative to control; type: functional; conditions: SW-620, 48 h, read-out: GI
[13] = Cytotoxicity against human SF268 cells assessed as cell growth inhibition at 10 uM after 48 hrs by SRB assay relative to control; type: functional; conditions: SF-268, 48 h, read-out: GI
[14] = Cytotoxicity against human SF539 cells assessed as cell growth inhibition at 10 uM after 48 hrs by SRB assay relative to control; type: functional; conditions: SF-539, 48 h, read-out: GI
[15] = Cytotoxicity against human OVCAR8 cells assessed as cell growth inhibition at 10 uM after 48 hrs by SRB assay relative to control; type: functional; conditions: OVCAR-8, 48 h, read-out: GI
[16] = Cytotoxicity against human NCI-ADR-RES cells assessed as cell growth inhibition at 10 uM after 48 hrs by SRB assay relative to control; type: functional; conditions: read-out: GI
MDA-MB-231 = assay: Cytotoxicity against human MDA-MB-231 cells assessed as cell growth inhibition at 10 uM after 48 hrs by SRB assay relative to control; type: functional; conditions: MDA-MB-231, 48 h, read-out: GI
[17] = Cytotoxicity against human RXF393 cells assessed as cell growth inhibition at 10 uM after 48 hrs by SRB assay relative to control; type: functional; conditions: RXF 393, 48 h, read-out: GI
KM12 = assay: Cytotoxicity against human KM12 cells assessed as cell growth inhibition at 10 uM after 48 hrs by SRB assay relative to control; type: functional; conditions: KM12, 48 h, read-out: GI
[18] = Cytotoxicity against human RPMI8226 cells assessed as cell growth inhibition at 10 uM after 48 hrs by SRB assay relative to control; type: functional; conditions: RPMI-8226, 48 h, read-out: GI
CCRF-CEM = assay: Cytotoxicity against human CCRF-CEM cells assessed as cell growth inhibition at 10 uM after 48 hrs by SRB assay relative to control; type: functional; conditions: read-out: GI
[19] = Cytotoxicity against human OVCAR5 cells assessed as cell growth inhibition at 10 uM after 48 hrs by SRB assay relative to control; type: functional; conditions: OVCAR-5, 48 h, read-out: GI
[20] = Cytotoxicity against human HCT116 cells assessed as cell growth inhibition at 10 uM after 48 hrs by SRB assay relative to control; type: functional; conditions: HCT-116, 48 h, read-out: GI
HT-29 = assay: Cytotoxicity against human HT-29 cells assessed as cell growth inhibition at 10 uM after 48 hrs by SRB assay relative to control; type: functional; conditions: HT-29, 48 h, read-out: GI
MCF7 = assay: Cytotoxicity against human MCF7 cells assessed as cell growth inhibition at 10 uM after 48 hrs by SRB assay relative to control; type: functional; conditions: MCF7, 48 h, read-out: GI
NCI-H23 = assay: Cytotoxicity against human NCI-H23 cells assessed as cell growth inhibition at 10 uM after 48 hrs by SRB assay relative to control; type: functional; conditions: NCI-H23, 48 h, read-out: GI
NCI-H226 = assay: Cytotoxicity against human NCI-H226 cells assessed as cell growth inhibition at 10 uM after 48 hrs by SRB assay relative to control; type: functional; conditions: NCI-H226, 48 h, read-out: GI
[21] = Cytotoxicity against human LOXIMVI cells assessed as cell growth inhibition at 10 uM after 48 hrs by SRB assay relative to control; type: functional; conditions: LOX IMVI, read-out: GI
[22] = biological target: DNA-dependent protein kinase catalytic subunit (Homo sapiens, UniProt P78527); assay: Inhibition of human DNA-PK using EPPLSQEAFADLWKK as substrate by HTRF assay
Sequence of DNA-dependent protein kinase catalytic subunit (P78527 whole entry): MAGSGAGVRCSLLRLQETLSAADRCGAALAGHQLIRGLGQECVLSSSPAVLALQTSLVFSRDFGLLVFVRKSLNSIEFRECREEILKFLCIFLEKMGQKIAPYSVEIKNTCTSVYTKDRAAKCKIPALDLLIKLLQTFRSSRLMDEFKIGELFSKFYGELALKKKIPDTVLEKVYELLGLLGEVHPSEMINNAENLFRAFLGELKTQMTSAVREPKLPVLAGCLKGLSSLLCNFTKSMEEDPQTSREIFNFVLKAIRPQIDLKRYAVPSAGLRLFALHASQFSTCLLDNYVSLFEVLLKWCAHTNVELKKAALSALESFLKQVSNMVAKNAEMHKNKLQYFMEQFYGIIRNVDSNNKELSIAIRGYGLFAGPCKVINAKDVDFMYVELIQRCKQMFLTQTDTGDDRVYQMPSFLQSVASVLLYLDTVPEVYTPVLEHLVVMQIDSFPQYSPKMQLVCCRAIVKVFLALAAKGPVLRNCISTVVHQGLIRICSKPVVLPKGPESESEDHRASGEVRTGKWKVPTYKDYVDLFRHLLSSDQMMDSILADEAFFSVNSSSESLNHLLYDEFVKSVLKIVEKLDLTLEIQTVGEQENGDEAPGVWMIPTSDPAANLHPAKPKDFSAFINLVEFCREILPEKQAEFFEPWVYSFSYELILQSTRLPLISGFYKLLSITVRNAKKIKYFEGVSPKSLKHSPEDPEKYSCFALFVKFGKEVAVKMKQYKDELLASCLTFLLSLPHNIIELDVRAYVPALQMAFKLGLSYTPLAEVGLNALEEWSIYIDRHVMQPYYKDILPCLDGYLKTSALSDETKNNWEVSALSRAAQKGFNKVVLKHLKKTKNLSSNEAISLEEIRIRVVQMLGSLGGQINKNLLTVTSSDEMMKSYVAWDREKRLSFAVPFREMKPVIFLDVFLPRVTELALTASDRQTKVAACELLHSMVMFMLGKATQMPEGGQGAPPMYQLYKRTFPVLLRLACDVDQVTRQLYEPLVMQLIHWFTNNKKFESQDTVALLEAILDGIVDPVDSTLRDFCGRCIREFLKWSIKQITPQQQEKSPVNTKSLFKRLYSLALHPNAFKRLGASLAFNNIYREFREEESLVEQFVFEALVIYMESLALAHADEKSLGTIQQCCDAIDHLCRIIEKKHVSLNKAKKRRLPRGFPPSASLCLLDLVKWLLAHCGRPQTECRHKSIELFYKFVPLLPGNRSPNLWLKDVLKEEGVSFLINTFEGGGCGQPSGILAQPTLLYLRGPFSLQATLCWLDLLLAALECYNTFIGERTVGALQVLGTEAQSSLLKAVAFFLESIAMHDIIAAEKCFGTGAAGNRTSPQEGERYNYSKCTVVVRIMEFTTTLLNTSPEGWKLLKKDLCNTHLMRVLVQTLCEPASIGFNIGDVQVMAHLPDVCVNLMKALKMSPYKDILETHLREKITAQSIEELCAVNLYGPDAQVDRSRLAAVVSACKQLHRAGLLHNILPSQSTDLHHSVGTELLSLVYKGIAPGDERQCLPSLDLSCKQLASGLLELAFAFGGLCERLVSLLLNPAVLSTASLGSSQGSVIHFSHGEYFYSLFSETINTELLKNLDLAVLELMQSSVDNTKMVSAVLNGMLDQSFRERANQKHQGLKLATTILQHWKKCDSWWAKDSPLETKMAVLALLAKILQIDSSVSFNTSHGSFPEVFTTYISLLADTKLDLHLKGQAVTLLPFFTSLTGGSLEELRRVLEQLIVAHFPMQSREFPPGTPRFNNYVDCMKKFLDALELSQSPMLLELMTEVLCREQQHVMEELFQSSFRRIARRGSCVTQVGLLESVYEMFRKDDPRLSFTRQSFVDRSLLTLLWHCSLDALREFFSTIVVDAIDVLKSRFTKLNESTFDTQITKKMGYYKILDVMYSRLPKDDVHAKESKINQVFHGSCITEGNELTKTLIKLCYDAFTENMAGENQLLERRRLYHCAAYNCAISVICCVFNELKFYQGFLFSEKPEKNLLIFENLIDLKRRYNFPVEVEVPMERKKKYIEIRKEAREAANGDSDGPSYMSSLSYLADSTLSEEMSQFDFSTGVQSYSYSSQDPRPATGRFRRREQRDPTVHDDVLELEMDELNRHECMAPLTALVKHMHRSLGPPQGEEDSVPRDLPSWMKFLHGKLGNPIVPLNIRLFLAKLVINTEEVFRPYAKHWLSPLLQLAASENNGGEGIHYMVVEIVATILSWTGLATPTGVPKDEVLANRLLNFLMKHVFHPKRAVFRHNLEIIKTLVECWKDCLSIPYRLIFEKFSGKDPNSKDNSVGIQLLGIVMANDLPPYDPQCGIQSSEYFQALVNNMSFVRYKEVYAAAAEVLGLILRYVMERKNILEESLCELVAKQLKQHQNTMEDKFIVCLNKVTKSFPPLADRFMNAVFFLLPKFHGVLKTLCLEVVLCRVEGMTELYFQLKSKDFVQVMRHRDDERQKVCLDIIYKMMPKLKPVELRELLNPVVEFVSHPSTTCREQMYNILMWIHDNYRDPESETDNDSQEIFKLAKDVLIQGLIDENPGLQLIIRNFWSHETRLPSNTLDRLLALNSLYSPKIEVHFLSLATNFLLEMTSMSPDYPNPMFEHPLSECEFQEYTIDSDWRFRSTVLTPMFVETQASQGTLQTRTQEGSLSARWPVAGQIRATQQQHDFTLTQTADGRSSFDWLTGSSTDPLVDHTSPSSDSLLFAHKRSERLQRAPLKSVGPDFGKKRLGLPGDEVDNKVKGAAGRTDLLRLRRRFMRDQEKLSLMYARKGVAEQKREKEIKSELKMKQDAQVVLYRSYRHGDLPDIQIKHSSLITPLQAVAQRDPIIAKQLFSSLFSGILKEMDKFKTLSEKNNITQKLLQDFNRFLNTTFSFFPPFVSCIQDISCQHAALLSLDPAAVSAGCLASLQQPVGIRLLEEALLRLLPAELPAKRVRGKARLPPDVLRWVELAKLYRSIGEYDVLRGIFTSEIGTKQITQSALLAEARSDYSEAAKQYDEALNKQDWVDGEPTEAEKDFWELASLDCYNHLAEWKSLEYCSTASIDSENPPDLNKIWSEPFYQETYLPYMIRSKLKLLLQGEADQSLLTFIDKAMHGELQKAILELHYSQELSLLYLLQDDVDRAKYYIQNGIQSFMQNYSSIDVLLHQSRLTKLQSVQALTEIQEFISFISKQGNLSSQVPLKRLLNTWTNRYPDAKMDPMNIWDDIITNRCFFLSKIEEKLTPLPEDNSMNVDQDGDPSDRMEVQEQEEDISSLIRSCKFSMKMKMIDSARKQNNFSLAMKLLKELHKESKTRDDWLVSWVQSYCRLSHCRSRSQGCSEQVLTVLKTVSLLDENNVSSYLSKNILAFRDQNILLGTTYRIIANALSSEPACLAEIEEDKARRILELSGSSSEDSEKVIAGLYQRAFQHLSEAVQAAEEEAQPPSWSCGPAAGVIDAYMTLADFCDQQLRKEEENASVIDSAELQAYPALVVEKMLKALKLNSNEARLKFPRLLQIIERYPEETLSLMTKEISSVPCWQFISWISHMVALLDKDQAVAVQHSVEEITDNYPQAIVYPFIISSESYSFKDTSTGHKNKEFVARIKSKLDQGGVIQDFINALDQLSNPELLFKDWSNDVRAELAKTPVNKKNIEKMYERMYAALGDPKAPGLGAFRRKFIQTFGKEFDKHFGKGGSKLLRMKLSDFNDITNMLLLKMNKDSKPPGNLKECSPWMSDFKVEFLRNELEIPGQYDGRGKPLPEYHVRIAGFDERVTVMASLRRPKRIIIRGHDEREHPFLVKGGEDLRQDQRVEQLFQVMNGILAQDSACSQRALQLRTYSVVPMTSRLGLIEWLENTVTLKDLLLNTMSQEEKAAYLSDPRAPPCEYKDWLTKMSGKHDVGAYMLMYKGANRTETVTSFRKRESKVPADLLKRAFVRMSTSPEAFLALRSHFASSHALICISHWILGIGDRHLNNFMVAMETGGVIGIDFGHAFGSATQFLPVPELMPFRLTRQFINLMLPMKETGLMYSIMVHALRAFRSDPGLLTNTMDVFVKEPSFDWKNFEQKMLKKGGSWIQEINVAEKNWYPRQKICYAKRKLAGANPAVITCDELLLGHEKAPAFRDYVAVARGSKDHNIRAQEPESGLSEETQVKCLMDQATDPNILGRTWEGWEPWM

Row | Compound | inhibition of growth at 10 µM [1] | inhibition of growth at 10 µM (SK-MEL-5) | inhibition of growth at 10 µM [2] | inhibition of growth at 10 µM (K562) | inhibition of growth at 10 µM [3] | inhibition of growth at 10 µM (EKVX) | inhibition of growth at 10 µM [4] | inhibition of growth at 10 µM (U-251) | inhibition of growth at 10 µM [5] | inhibition of growth at 10 µM [6] | inhibition of growth at 10 µM [8] | inhibition of growth at 10 µM [9] | inhibition of growth at 10 µM [10] | inhibition of growth at 10 µM (SK-MEL-28) | inhibition of growth at 10 µM [11] | inhibition of growth at 10 µM (SR) | inhibition of growth at 10 µM [12] | inhibition of growth at 10 µM [13] | inhibition of growth at 10 µM [14] | inhibition of growth at 10 µM [15] | also measured
1 | O=c1nc(N2CCOCC2)oc2ccc(-c3cccc4c3sc3ccccc34)cc12 | 39.9% | 9.84% | -10.4% | 10.7% | 0.5% | 5.25% | -10.4% | 6.66% | 4.6% | 29.8% | 4.51% | -5.28% | 10.5% | 4.76% | 2.78% | 19.5% | 5.25% | -3.32% | 0.05% | 0.97% | inhibition of growth at 10 µM [7]: 41.6%; inhibition of growth at 10 µM [16]: 2.44%; inhibition of growth at 10 µM (MDA-MB-231): 12.8%; inhibition of growth at 10 µM [17]: -5.78%; inhibition of growth at 10 µM (KM12): 0.12%; inhibition of growth at 10 µM [18]: 3.98%; inhibition of growth at 10 µM (CCRF-CEM): 4.4%; inhibition of growth at 10 µM [19]: 0.51%; inhibition of growth at 10 µM [20]: 8.17%; inhibition of growth at 10 µM (HT-29): -13.4%; inhibition of growth at 10 µM (MCF7): 21%; inhibition of growth at 10 µM (NCI-H23): -2.37%; inhibition of growth at 10 µM (NCI-H226): 11.7%; inhibition of growth at 10 µM [21]: 1.76%
2 | NC(=O)c1ccc(-c2cccc3c(=O)nc(N4CCOCC4)oc23)cc1 | 10.1% | 2.24% | 2.5% | -10.4% | 6.07% | 2.66% | -3.41% | 2.31% | 4.92% | -2.19% | -3.78% | -3.1% | 25.5% | -3.25% | 9.54% | 8.01% | -3.57% | 6.21% | -1.74% | -1.1% | inhibition of growth at 10 µM [16]: 2.66%; inhibition of growth at 10 µM (MDA-MB-231): 8.08%; inhibition of growth at 10 µM [17]: -4.38%; inhibition of growth at 10 µM (KM12): 2.45%; inhibition of growth at 10 µM [18]: -4.18%; inhibition of growth at 10 µM (CCRF-CEM): 1.37%; inhibition of growth at 10 µM [19]: 3.19%; IC50 [22]: 8.81 µM; inhibition of growth at 10 µM [20]: -3.97%; inhibition of growth at 10 µM (HT-29): -0.51%; inhibition of growth at 10 µM (MCF7): 9.68%; inhibition of growth at 10 µM (NCI-H23): 7.55%; inhibition of growth at 10 µM (NCI-H226): 17.4%; inhibition of growth at 10 µM [21]: 8.86%
